# pEC50, pIC50: −log10 of the molar value. “And” between values parts separate entries of the source, which are not always exact repeats. Equal entries are not always repeated. Where two headings read alike, the source gives them in different places.
# Tests used:
# [1] = system: IL-10; test: IL-10 induction assay in PBMCs; format: cell-based; conditions: TPA/PHA stimulated human PBMCs
# Source text: 6. The IL-10 induction Assay
# This is an in vitro efficacy assay for psoriasis, abscess and adhesion. Psoriasis involves both keratinocytes and immune cells. IL-10 is a unique cytokine because it is anti-inflammatory and immunosuppressive. This assay tells us whether a VDRM is able to function as an agonist in PBMCs ([…]) or not.
# (6) Materials and Method for human IL-10 Induction Assay: […]
# [2] = system: KERtr cells; test: Keratinocyte proliferation assay; format: cell-based, Human; conditions: BrdU incorporation
# Experimental: 5. The Keratinocyte Proliferation Assay
# This Assay is indicative for the treatment of psoriasis.
# (5) The Keratinocyte Proliferation Assay:
# KERtr cells (Human skin keratinocyte transformed with a retrovirus vector, obtained from ATCC) were plated in 96-well flat-bottomed plates (3000 cells/well) in 100 μl keratinocyte serum free medium supplemented with bovine pituitary extract in the absence of EGF (Life Technologies, Rockville, Md.) and incubated at 37° C. for two days. The cells were treated with various concentrations of VDR ligands (ten-fold serial dilution from 10,000 nM to 0.1 nM in triplicate), dissolved in 100 μl keratinocyte serum free medium supplemented with bovine pituitary extract in the absence of EGF and incubated at 37° C. for 72 hr. […] Potency values (IC50) values were determined as the concentration (nM) of compound that elicited a half-maximal response.
# [3] = target: T1, VDR (Homo sapiens, UniProt P11473); test: VDR CTF (Caco-2 cell co-transfection) assay; format: cell-based; conditions: Caco-2 cells, Gal-4-VDR-LBD co-transfection; Table 1
# T1 construct: the receptor expression vector pGal-4-VDR-LBD (10 ng); expressed in transfected cells; host or cells: Caco-2 cells
# T1 sequence (P11473 127-423 limits assumed): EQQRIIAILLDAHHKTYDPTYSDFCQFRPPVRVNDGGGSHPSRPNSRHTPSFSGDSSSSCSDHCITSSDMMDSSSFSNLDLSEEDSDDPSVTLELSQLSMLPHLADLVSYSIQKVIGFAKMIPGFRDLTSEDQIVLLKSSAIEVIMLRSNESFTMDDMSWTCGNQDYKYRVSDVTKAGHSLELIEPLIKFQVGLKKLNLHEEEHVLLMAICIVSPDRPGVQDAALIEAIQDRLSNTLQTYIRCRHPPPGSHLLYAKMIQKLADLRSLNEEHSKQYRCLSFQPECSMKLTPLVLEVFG
# Experimental: 2. The Caco-2 Cell Co-transfection Assay:
# The Caco-2 cell assay is an indicator for the undesirable condition of hypercalcemia. This co-transfection assay is a surrogate assay for in vivo calcemic activity of VDR ligands. […] Preferred assay results are greater than 1000 nM.
# (§1) Step 4: FuGENE, DNA and Media Complex to-well plate • Add FuGENE-DNA-Media complex from step 3 to each plate • Incubate. […] Day 4: Luciferase Assay • Read the plates after drug treatment • Remove part of media from all the wells and leave remainder • Add Steady-Glo Luciferase Reagent mixture/wells • Incubate • Count each well using a Luminescence counter, Top Count NXT by Packard Set a delay between plates to reduce the background. (2) Materials and Method for The Caco-2 Cell Assay:
# Caco-2 cells, grown in phenol red free, DMEM (Invitrogen, Carlsbad, Calif.) containing 10% charcoal-stripped FCS (Hyclone, Logan, Utah), were transfected with Fugene 6 reagent (Roche Diagnostics, Indianapolis, Ind.). Cells (5000/well) were plated 18 h before transfection in a 96 well plate. The Cells were transfected with Gal-4-responsive reporter pFRLuc (150 ng, Stratagene, La Jolla Calif.) and the receptor expression vector pGal-4-VDR-LBD (10 ng), along with Fugene 6 reagent (0.2 μl/well). The DNA-Fugene complex was formed by incubating the mixture for 30 min at room temperature. The cells were transfected in triplicate for 5 h, and treated with various concentrations of VDR ligands (form 0.01 nM to 10,000 nM concentration range) 18 h post-transfection. The luciferase activity was quantified using Steady-Glo reagent kit (Promega, Madison, Wis.) as per manufacturer's specifications.
# [4] = system: rat osteocalcin promoter; test: OCN (osteocalcin) promoter assay; format: cell-based; conditions: RG-15 (ROS 17/2.8) cells, 48 hr treatment, Table 1
# Experimental: 3. The OCN (osteocalcin) Promoter Assay
# The OCN Promoter Assay is an indicator and marker for osteoporosis. […] Preferred assay results are less than 50 nM.
# (3) Materials and Method for The OCN Promoter Assay:
# The activation of osteocalcin by VDR ligands was evaluated in a rat osteoblast-like cell line RG-15 (ROS 17/2.8) stably expressing rat osteocalcin promoter fused with luciferase reporter gene. […] After 24 hr, cells (in DMEM/F-12 medium +2% FBS) were treated with various concentrations of compounds, dissolved in DMSO. The final DMSO concentration remained at 0.01% (v/v). After 48 hr treatment, the medium was removed, cells were lysed with 50 μl of lysis buffer (From Luciferase reporter assay system, Roche Diagnostics, Indianapolis, Ind.) and assayed for luciferase activity using the Luciferase Reporter Gene Assay kit from Boehringer Mannheim as per manufacturer's specifications.
# [5] = target: T2, RXR-VDR heterodimer (Homo sapiens, UniProt P11473); test: RXR-VDR heterodimerization assay (SaOS-2 cells); format: cell-based; conditions: luciferase reporter, Table 1
# T2 construct: Add the Gal-4-RXR-DEF and VP16-VDR-LBD; expressed in transfected cells; host or cells: SaOs-2 cells
# T2 sequence (P11473 127-423 limits assumed): T1 sequence (P11473 127-423 limits assumed)
# T2 sequence (P19793 201-462 partner limits assumed): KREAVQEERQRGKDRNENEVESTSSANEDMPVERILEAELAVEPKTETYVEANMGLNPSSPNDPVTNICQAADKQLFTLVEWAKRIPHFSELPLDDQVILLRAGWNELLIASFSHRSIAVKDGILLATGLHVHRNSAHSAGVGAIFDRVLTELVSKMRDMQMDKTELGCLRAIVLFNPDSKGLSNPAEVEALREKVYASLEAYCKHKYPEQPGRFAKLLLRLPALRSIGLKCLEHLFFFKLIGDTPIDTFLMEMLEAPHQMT
# Source text: 1. The RXR-VDR Heterodimer Assay:
# This assay provides the VDR activity of a test compound.
# (1) Materials and Method for RXR-VDR Heterodimerization Assay:
# Transfection/Treatment Media: • D-MEM Low Glucose Without Phenol Red only
# Flat well Plates: • Use well plate to plate cells • Use Deep well plate sterile to make up treatment media.
# Luciferase Assay Reagent: • Use Steady-Glo Luciferase Reagent from Promega (Cat #E2550) Consists of: • a. E2533 Assay Substrate, lyopholized product and • b. E2543 Assay Buffer. • Thaw at room temperature • Store Day 1: Cell Plating: • Cell Harvesting • Aspirate media from culture flask, rinse cells with HBSS and aspirate. • Add trypsin and incubate. • When cells appear detached, resuspend cells in growth media. • Transfer into a new flask with fresh growth media for passaging the cells. • Plate well plates and two extra plates A. Cell Count • Mix the cell suspension using pipette • Use Hematocytometer to count the cells • Load cell suspension onto the hemocytometer chamber • Count cells.
# Step 1: DNA and Media • Add plain DMEM media to tubes for mixing the DNA • Add the Reporter gene pFR-LUC • Add the Gal-4-RXR-DEF and VP16-VDR-LBD
# Step 2: FuGENE and Media • Prepare plain DMEM media in a ubes for mixing PuGENE • Add FuGENE 6 Transection Reagent • Incubate
# Step 3: FuGENE, DNA and Media Complex • Add FuGENE Media complex from step 2 to DNA Media complex from step1 • Incubate
# as §1, with “Assay: […]” for “Assay:”
# [6] = Mouse hypercalcemia assay; conditions: six day hypercalcemia test, oral gavage, serum ionized calcium; Table 1
# Experimental: The Mouse Hypercalcemia Assay
# (§2) The Mouse Hypercalcemia Assay is a six day hypercalcemia test for toxicity and selectivity. Acceptable test results are levels greater than 300 μg/kg/day. Preferred assay results are levels greater than 1000 μg/kg/day.
# (§3) (4) Materials and Method for The Mouse Hypercalcemia Assay:
# (§4) Weanling, virus-antibody-free, five to six weeks old female DBF mice (Harlan, Indianapolis, Ind.) are used for all the studies. Animals are allowed to acclimate to local vivarium conditions for 2 days. […] The animals then are divided into groups with 4-5 mice per group. Different doses of test compounds prepared in 10% Ethanol and 90% sesame oil are administered to mice orally via gavage for 6 days. 1α-25(OH)2D3 0.5 μg/kg/d was also given to one group of mice as the positive control. […] Raw data of group differences is assessed by analysis of variance (ANOVA) using Fisher's protected least significant difference (PLSD) where the significance level was P<0.05.
# [7] = in vivo, po
# Experimental: The Mouse Hypercalcemia Assay
# as §2, §3, §4
# [8] = 72 hr, Table 2, read-out: Kera. Prolif. IC50
Mouse Hypercal [7],"pIC50 ([1]; PBMC, Table 4 comparison compounds)",Compound,pIC50 ([1]; Table 2),"pIC50 [2, 8]",EC50 [3],pEC50 [4],pEC50 [5],Mouse Hypercal [6],"pIC50 ([2]; Homo sapiens, Keratinocyte, 72 h, Table 2, read-out: Kera. Prolif. IC50)","pEC50 ([4]; Rattus norvegicus, 48 h)","pIC50 ([2]; Homo sapiens, Keratinocyte, 72 h, Table 4 comparison compounds, read-out: Kera. Prolif. IC50)"
,,"CCc1cc(C(CC)(CC)c2ccc(C(=O)N(C)OC)o2)ccc1OCC(O)C(C)(C)C (single isomer, unassigned; enantiomer 1) [Ex. 13, 3′-[4-(2-hydroxy-3,3-dimethyl-butoxy)-3-ethylphenyl]-3′-[5-N-methoxy-N-methylamino-carbonyl-2-furanyl]pentane enantiomer 1]",8.34,7.74,572 nM,7.70,7.74,>3000 µg/kg/day,,,
,,"CCc1cc(C(CC)(CC)c2ccc(C(=O)N(C)C)o2)ccc1OCC(O)C(C)(C)C (single isomer, unassigned; enantiomer 2) [Ex. 11, 3′-[4-(2-hydroxy-3,3-dimethyl-butoxy)-3-ethylphenyl]-3′-[5-dimethylaminocarbonyl-2-furanyl]pentane enantiomer 2]",,7.74,572 nM,7.70,7.75,>3000 µg/kg/day,,,
0.06 µg/kg/day,,"C=C1/C(=C\C=C2/CCC[C@]3(C)[C@@H]([C@H](C)CCCC(C)(C)O)CC[C@@H]23)C[C@@H](O)C[C@@H]1O [AA, 1α,25-dihydroxyvitamin D3]",,,,,,,,,
,,"CCC(CC)(c1ccc(OCC(=O)C(C)(C)C)c(C)c1)c1ccc(C(=O)N(C)C)o1 [Ex. 1, 3′-[4-(2-oxo-3,3-dimethylbutoxy)-3-methylphenyl]-3′-[5-dimethylaminocarbonyl-2-furanyl]pentane]",,,191 nM,8.52,8.48 and 9.22,>1500 µg/kg/day,7.82,8.30,
,,"CCN(C)C(=O)c1ccc(C(CC)(CC)c2ccc(OCC(O)C(C)(C)C)c(C)c2)o1 (stereo not drawn) [Ex. 9, 3′-[4-(2-hydroxy-3,3-dimethyl-butoxy)-3-methylphenyl]-3′-[5-N-ethyl-N-methylamino-carbonyl-2-furanyl]pentane]",,7.55,616 nM,7.52,7.80,,,,
,9.30,"C=C1/C(=C\C=C2/CCC[C@]3(C)[C@@H]([C@H](C)/C=C/[C@@H](O)C4CC4)CC[C@@H]23)C[C@@H](O)C[C@@H]1O [FF, calcipotriol, reference compound]",,,,,,,,,6.99

# Source: patent publication US7468449B2, “Phenyl-furan compounds as vitamin D receptor modulators” (Eli Lilly and Company, priority 2003, dated 2008)
